In patent US20170304175A1, “COMPOSITION FOR INDUCING FACILITATION OF CELL REJUVENATION COMPRISING GENISTEIN OR EPIGALLOCATECHIN GALLATE” (AMOREPACIFIC CORPORATION, priority 2014, published 2017):

Test system: melanocytes
Test: Observation of phenotype of melanocytes with an optical microscope
Assay type: cell-based, Human
Details: long-term exposure (1 μM in medium from passage 7 to passage 11/12), FIGS. 4A-4B
Experimental: Human primary melanocytes (Life Technologies, CA, USA) were cultured in a M-254 medium (Gibco BRL, NY, USA) supplemented with a human melanocyte growth supplement (HMGS; Gibco BRL, NY, USA) in a 5% CO2 incubator at […] on a 100-mm culture plate while replacing the medium every other day until the cells occupy 80% of the plate area and then subcultured on another 100-mm culture plate at a ratio of 1:4.
The melanocytes first placed on the 100-mm culture plate were considered as passage 1 (PA1) and subculturing was performed 11 times (PA12).
As a control group, melanocytes were subcultured to passage 11 and passage 12 without any treatment, and as a test group, the cells were subcultured under the same environment as the control group until passage 6, and then subcultured from passage 7 to passage 11 and passage 12 in a medium containing 1 μM genistein or epigallocatechin gallate (EGCG).

| SMILES | phenotype of melanocytes of the late cell line |
| --- | --- |
| O=C(O[C@@H]1Cc2c(O)cc(O)cc2O[C@@H]1c1cc(O)c(O)c(O)c1)c1cc(O)c(O)c(O)c1 [epigallocatechin gallate (EGCG), epigallocatechin gallate] | recovered similarly to the cells of the early stage of subculturing |
| O=c1c(-c2ccc(O)cc2)coc2cc(O)cc(O)c12 [genistein] | recovered similarly to the cells of the early stage of subculturing |
